Assays:
Assay type in all cases: physicochemical
[1] = Cooling crystallisation of acetylsalicylic acid in ethanol/water in capillary tubing; conditions: 200 mg/mL 50 vol % ethanol/water, residence time 5.3 s, initial 65° C., bath 10° C.
Protocol: Tubing length should also be adapted when no antisolvent is added to the molecule/solvent solution.
The crystallization temperature is controlled by a water bath containing about 5 L of water, temperature is monitored at all times by a thermocouple. This water is cooled by a 1 m long cupper serpentine plunged into the bath with cooling liquid flowing from and to a cryothermostat, the water bath itself is agitated with a magnetic bar stirrer. The internal volume of a 7 m long tubing of […] is about 22 mL. As this volume is 220 times smaller than the volume of the present water it is assumed that the water temperature remains within a 0.5° C. or smaller margin of the set temperature value.
This reduction in size has to be performed in order to increase the reigning Reynolds number inside the restriction at set flow rates and concentrations.
For example, in a series of tests, an identical total residence time inside the tubing of 5.3 s was respected. A solution of 200 mg/mL aspirin in 50 vol % ethanol/water was used; at different flow rates. This means that the total length of the tubing inside the water bath was varied according to the set flow rate in order to retain the 5.3 s residence time.

[2] = Maturing of acetylsalicylic acid crystals (growth treatment, early filtration); conditions: 3 m tubing, Tc 15° C., σ 4.5, 30 mL/min; for Sphere Equivalent Diameter: thickness set to ⅕ of width
Protocol: Obtaining different crystal sizes as end-product then depends on the time that is given to the crystals to mature further. […] To further proof the effect of early filtration (see table 10), the liquor of tests 43 and 44 were also directly filtered after exiting the tubing (test 49 and 50, respectively); the product of test 44 was also collected for 2 minutes and filtered afterwards (test 51).

[3] = Transient time and distance of aspirin solution in tubing; conditions: 200 mg/mL in ethanol/water 50/50 vol %, start 60° C., water bath 10° C.; for Transient distance: flow rate 30 mL/min
Source text: Two different capillaries of dimensions 1000 and 1500 μm inner diameter ID were used for a test using the setup of FIG. 1 in which the evolution of temperature inside the tubing was experimentally investigated at different distances.
The transition time is defined as the time necessary to reach crystallization conditions in the used setup (i.e. time for a fluid particle flowing in the liquid to get from undersaturated conditions to nucleation conditions). Therefore, this time is at a given concentration dominated by the difference in temperature between the solubility temperature and the metastable zone width or MSZW. At temperatures below this MSZW the solute in solution starts to nucleate spontaneously. […] (both measured). The transition time is then defined as the time needed to overcome this 20° C. difference in temperature.
As a consequence, for a 1500 μm inner diameter tubing, the total tubing length necessary to conduct crystallization is a multitude of the corresponding transient distance, making any workable application impossible: about 3.5 m are necessary to overcome the solubility time; 3.5 m to reach transient distance and approximately the 4 times the transient distance is necessary to increase sufficiently the induction time. The transient distance is defined as the distance the liquid is transferred during the transient time at a given flow rate.

[4] = Cooling crystallisation of acetylsalicylic acid in ethanol/water in capillary tubing
[5] = Maturing of acetylsalicylic acid crystals (growth treatment, early filtration); conditions: 3 m tubing
[6] = test 49: 200 mg/mL ethanol/water 50/50 vol %, restriction 1 of 250 μm ID, filtration At exit
[7] = test 50: 200 mg/mL ethanol/water 50/50 vol %, restriction 2 of 250 μm ID, filtration At exit
[8] = test 51: 200 mg/mL ethanol/water 50/50 vol %, restriction 2 of 250 μm ID, filtration After 120 s
[9] = 200 mg/mL 50 vol % ethanol/water, residence time 5.3 s, initial 65° C., bath 10° C., tubing ID 1000 μm, flow rate 20 mL/min, tubing length 2.5 m
[10] = test 40: 200 mg/mL ethanol/water 50/50 vol %, 3 m tubing, Tc 15° C., σ 4.5, 30 mL/min, restriction 0, average of 10 tests
[11] = test 41: 200 mg/mL ethanol/water 50/50 vol %, 3 m tubing, Tc 15° C., σ 4.5, 30 mL/min, restriction 1 of 500 μm ID, average of 10 tests
[12] = test 42: 200 mg/mL ethanol/water 50/50 vol %, 3 m tubing, Tc 15° C., σ 4.5, 30 mL/min, restriction 2 of 500 μm ID, average of 10 tests
[13] = test 43: 200 mg/mL ethanol/water 50/50 vol %, 3 m tubing, Tc 15° C., σ 4.5, 30 mL/min, restriction 1 of 250 μm ID, average of 10 tests
[14] = test 44: 200 mg/mL ethanol/water 50/50 vol %, 3 m tubing, Tc 15° C., σ 4.5, 30 mL/min, restriction 2 of 250 μm ID, average of 10 tests
[15] = test 45: 200 mg/mL ethanol/water 50/50 vol %, Tc 10° C., σ 6.7, 30 mL/min, no restrictions, Growth to equilibrium in tubing
[16] = test 46: 200 mg/mL ethanol/water 50/50 vol %, Tc 10° C., σ 6.7, 30 mL/min, no restrictions, filtration on 16 μm glass filter after 60 s
[17] = test 47: 200 mg/mL ethanol/water 50/50 vol %, Tc 10° C., σ 6.7, 30 mL/min, no restrictions, filtration on 16 μm glass filter after 90 s
[18] = test 48: 200 mg/mL ethanol/water 50/50 vol %, Tc 10° C., σ 6.7, 30 mL/min, no restrictions, Addition to saturated solution

Crystal length ([1]; tubing ID 750 μm, flow rate 20 mL/min, tubing length 4.2 m): 377 μm
Nucleation rate J ([1]; tubing ID 750 μm, flow rate 30 mL/min, tubing length 6.2 m): 170 000 mL^−1 · s−^1
Crystal length ([1]; tubing ID 1000 μm, flow rate 30 mL/min, tubing length 3.6 m): 495 μm
Crystal length ([1]; tubing ID 1000 μm, flow rate 40 mL/min, tubing length 4.7 m): 416 μm
Transient time ([3]; tubing 1000 μm): 1 000 ms
Transient distance ([3]; tubing 1000 μm): 1.3 m
Transient time ([3]; tubing 1500 μm): 5 700 ms
Transient distance ([3]; tubing 1500 μm): 3.5 m
Nucleation rate J ([4]; 200 mg/mL 50 vol % ethanol/water, residence time 5.3 s, initial 65° C., bath 10° C., tubing ID 750 μm, flow rate 20 mL/min, tubing length 4.2 m): 50 000 mL^−1 · s−^1
Crystal length ([4]; 200 mg/mL 50 vol % ethanol/water, residence time 5.3 s, initial 65° C., bath 10° C., tubing ID 750 μm, flow rate 30 mL/min, tubing length 6.2 m): 285 μm
Crystal length [4, 9]: 1279 μm
Nucleation rate J [4, 9]: 1400 mL^−1 · s−^1
Nucleation rate J ([4]; 200 mg/mL 50 vol % ethanol/water, residence time 5.3 s, initial 65° C., bath 10° C., tubing ID 1000 μm, flow rate 30 mL/min, tubing length 3.6 m): 54 000 mL^−1 · s−^1
Nucleation rate J ([4]; 200 mg/mL 50 vol % ethanol/water, residence time 5.3 s, initial 65° C., bath 10° C., tubing ID 1000 μm, flow rate 40 mL/min, tubing length 4.7 m): 112 000 mL^−1 · s−^1
Crystal length ([4]; 200 mg/mL 50 vol % ethanol/water, residence time 5.3 s, initial 65° C., bath 10° C., tubing ID 1500 μm, flow rate 20 mL/min, tubing length 1.2 m): No crystallization observed
Crystal length ([4]; 200 mg/mL 50 vol % ethanol/water, residence time 5.3 s, initial 65° C., bath 10° C., tubing ID 1500 μm, flow rate 30 mL/min, tubing length 1.7 m): No crystallization observed
Crystal length ([4]; 200 mg/mL 50 vol % ethanol/water, residence time 5.3 s, initial 65° C., bath 10° C., tubing ID 1500 μm, flow rate 40 mL/min, tubing length 2.2 m): No crystallization observed
Crystal depth as fraction of the width ([4]; tests 43 and 44 (250 μm inner diameter restrictions), 200 mg/mL ethanol/water 50/50): about ⅕
SMILES: CC(=O)Oc1ccccc1C(=O)O [Acetylsalicylic acid, acetylsalicylic acid]
Crystal length [2, 6]: 104 ± 55 μm
Crystal width [2, 6]: 28 ± 13 μm
Sphere Equivalent Diameter [2, 6]: 32 ± 7 μm
Crystal width [2, 7]: 23 ± 17 μm
Sphere Equivalent Diameter [2, 7]: 24 ± 8 μm
Crystal length [2, 8]: 155 ± 91 μm
Crystal width [2, 8]: 36 ± 17 μm
Crystal length ([4]; test 34: 300 mg/mL ethanol-water, Tc 15° C., σ 27, Q 30 mL/min, tubing length 7 m, diameter 500 μm, 4 restrictions 1 mm long, 500 μm): Tube blocked
Crystal length ([4]; test 35: 300 mg/mL ethanol-water, Tc 10° C., σ 27, Q 30 mL/min, tubing length 6 m, diameter 750 μm, 4 restrictions 1 mm long, 500 μm): Tube blocked
Crystal length ([4]; test 36: 300 mg/mL ethanol-water, Tc 10° C., σ 27, Q 30 mL/min, tubing length 5 m, diameter 500 μm, 4 restrictions 1 mm long, 500 μm): Tube blocked
Crystal length ([4]; test 37: 300 mg/mL ethanol-water, Tc 10° C., σ 27, Q 30 mL/min, tubing length 3 m, diameter 500 μm, 4 restrictions 1 mm long, 500 μm): 800 ± 68 μm
Crystal length ([4]; test 38: 300 mg/mL ethanol-water, Tc 10° C., σ 27, Q 30 mL/min, tubing length 3 m, diameter 500 μm, 4 restrictions 1 mm long, 500 μm): 820 ± 80 μm
Crystal length ([4]; test 39: 300 mg/mL ethanol-water, Tc 10° C., σ 27, Q 30 mL/min, tubing length 3 m, diameter 500 μm, 4 restrictions 1 mm long, 500 μm): 795 ± 73 μm
Crystal length [4, 10]: 1319 ± 167 μm
Nucleation rate [4, 10]: 2300 mL⁻¹ s⁻¹
Sphere Equivalent Diameter [4, 10]: 449 ± 74 μm
Crystal length [4, 11]: 1398 ± 100 μm
Nucleation rate [4, 11]: 1900 mL⁻¹ s⁻¹
Sphere Equivalent Diameter [4, 11]: 490 ± 85 μm
Crystal length [4, 12]: 1049 ± 179 μm
Nucleation rate [4, 12]: 3700 mL⁻¹ s⁻¹
Sphere Equivalent Diameter [4, 12]: 348 ± 104 μm
Crystal length [4, 13]: 962 ± 82 μm
Nucleation rate [4, 13]: 5300 mL⁻¹ s⁻¹
Sphere Equivalent Diameter [4, 13]: 328 ± 31 μm
Crystal length [4, 14]: 393 ± 35 μm
Nucleation rate [4, 14]: 130 000 mL^−1 · s^−1
Sphere Equivalent Diameter [4, 14]: 117 ± 20 μm
Crystal length [5, 15]: 500 ± 230 μm
Crystal width [5, 15]: 69 ± 27 μm
Crystal length [5, 16]: 359 ± 190 μm
Crystal width [5, 16]: 66 ± 35 μm
Crystal length [5, 17]: 646 ± 391 μm
Crystal width [5, 17]: 38 ± 23 μm
Crystal length [5, 18]: 172 ± 66 μm
Crystal width [5, 18]: 38 ± 13 μm
Crystal length ([5]; test 50: 200 mg/mL ethanol/water 50/50 vol %, Tc 15° C., σ 4.5, 30 mL/min, restriction 2 of 250 μm ID, filtration At exit): 63 ± 36 μm
Sphere Equivalent Diameter ([5]; test 51: 200 mg/mL ethanol/water 50/50 vol %, Tc 15° C., σ 4.5, 30 mL/min, restriction 2 of 250 μm ID, filtration After 120 s, thickness set to ⅕ of width): 42 ± 11 μm
